Measurements from publication PMC3882240, “Matrix Stiffness Affects Endocytic Uptake of MK2-Inhibitor Peptides” (PLoS ONE, 2014).
Where a SMILES comes first, the peptide text is derived from it. Where no end group is shown, it is not given here. The star is where a group is joined. FITC = O=C1OC2(c3ccc(O)cc3Oc3cc(O)ccc32)c2ccc(NC(=S)*)cc21; Ahx = NCCCCCC(=O)O

Tested on: mesothelial cells
Test: Intracellular uptake of FITC-YARA by flow cytometry / confocal imaging
Type: cell-based, Human
Protocol: Flow cytometry was used to characterize the uptake of FITC-YARA. Mesothelial cells were seeded on gel substrates or tissue culture plastic, and cultured as previously described. After treating overnight with serum free media, cells were treated with various concentrations of FITC-YARA (refer to figures) or PBS (untreated control) in serum free media and incubated for 24 hours. To collect cells for flow cytometry, cells were washed with PBS, trypsin treated for 5–10 minutes, neutralized with serum-containing media, collected in a 15-ml conical tube and spun down at 300 × g for seven minutes. Cells were washed with PBS, quenched with trypan blue, then washed four to five times with PBS. Once excess trypan blue was washed away, cells were fixed using 1X cytofix buffer (BD). Samples were stored protected from light at 4°C until samples were run on the Cytomics FC500 MPL flow cytometer (Beckman Coulter) equipped with MXP Cytometry List Mode Data Acquisition and Analysis Software. Data acquisition required 10,000 events. Figures were obtained using Flow Jo software.
To characterize uptake on soft substrates, cells were pretreated with 10 mM methyl-β-cyclodextrin (MβCD) for 1 hour or incubated at 4°C for 30 minutes, then treated with 3 µM YARA for 1 hour. Cells were then collected and assayed by flow cytometry as previously described.
To elucidate the role of the cytoskeleton in the uptake of FITC-YARA, mesothelial cells were treated with various chemicals known to alter the cytoskeleton. Cytochalasin D (Sigma; 5 µg/ml) was used as an inhibitor of stress fiber formation on tissue culture plastic, lysophosphatidic acid (LPA; Sigma; 1,5,and 25 µg/ml ) was used to induce stress fiber formation on soft substrates and tissue culture plastic, and nocodozole (Calbiochem; 1 and 10 µg/ml) was used to inhibit microtubule polymerization on soft substrates. Cells were seeded and grown on substrates or tissue culture plastic as previously described. Following one hour pretreatment with the various inhibitors, cells were incubated with FITC-YARA for 1 hour then processed for flow cytometry.
For confocal images, cells were treated with FITC-YARA for 1 hour, then washed five times with media before imaging live using an FV1000 confocal microscopy equipped with ASW-10 software (Olympus).

CC(C)C[C@H](NC(=O)[C@H](C)NC(=O)[C@H](CCCCN)NC(=O)[C@H](C)NC(=O)[C@H](CCCNC(=N)N)NC(=O)[C@H](C)NC(=O)[C@H](CCC(N)=O)NC(=O)[C@H](CCCNC(=N)N)NC(=O)[C@H](C)NC(=O)[C@H](C)NC(=O)[C@H](C)NC(=O)[C@H](CCCNC(=N)N)NC(=O)[C@H](C)NC(=O)[C@H](Cc1ccc(O)cc1)NC(=O)CCCCCNC(=S)Nc1ccc2c(c1)C(=O)OC21c2ccc(O)cc2Oc2cc(O)ccc21)C(=O)N[C@@H](C)C(=O)N[C@@H](CCCNC(=N)N)C(=O)N[C@@H](CCC(N)=O)C(=O)N[C@@H](CC(C)C)C(=O)NCC(=O)N[C@H](C(=O)N[C@@H](C)C(=O)N[C@@H](C)C(N)=O)C(C)C [FITC-YARA] ({FITC-Ahx}-YARAAARQARAKALARQLGVAA-NH2)
uptake on soft substrates compared to tissue culture plastic at high seeding density (3 µM FITC-YARA, 71,000 cells/cm^2, flow cytometry): decreased the amount of FITC-YARA that was endocytosed
uptake on soft substrates compared to tissue culture plastic (3 µM FITC-YARA, 24 h, 21,000 cells/cm^2, serum-free media, flow cytometry, trypan blue quench): approximately double the uptake
intracellular uptake compared to untreated controls (all substrates, 3 µM FITC-YARA, 24 h, flow cytometry): increased intracellular uptake compared to untreated controls
uptake on soft substrates with MβCD (soft substrate, 10 mM methyl-β-cyclodextrin pretreatment 1 h then 3 µM peptide 1 h, flow cytometry): inhibited with MβCD pretreatment
uptake on soft substrates at 4°C (soft substrate, 30 min at 4°C then 3 µM peptide 1 h, flow cytometry): inhibited at low temperatures

YARAAARQARAKALARQLGVAA-NH2 [YARA]
effect of cytochalasin D (actin filament disruption) on peptide uptake (3 µM, TCPS, 5 µg/ml cytochalasin D 1 h pretreatment, peptide 1 h, flow cytometry): no effect on peptide uptake
effect of nocodazole (microtubule polymerization inhibition) on uptake (3 µM, soft substrate, 21,000 cells/cm^2, 1 or 10 µg/ml nocodazole 1 h pretreatment, peptide 1 h, flow cytometry, dose dependent): pronounced increase in YARA uptake
effect of LPA (actin filament induction) on peptide uptake (3 µM, soft substrate, 21,000 cells/cm^2, 5 or 25 µg/ml LPA 1 h pretreatment, peptide 1 h, flow cytometry): no effect on peptide uptake
